# From US10639287B2, “Compounds for the treatment of mitochondrial diseases” (UNIVERSITE PARIS-SUD, priority 2014, dated 2020)
# Columns and labels:
# [1] = system: homozygous TB2143 nematodes (polg-1(ok1548Δ/Δ)); assay: Gonad and/or intestinal extrusion (premature death) of homozygous nematodes; type: in vivo, Caenorhabditis elegans; conditions: 50 μM, until 7th day of adulthood
# Description: Ten homozygous TB2143 larvae (polg-1(ok1548Δ/Δ)) at stage L4 were deposited on each NGM dish containing either DMSO or 50 μM clofilium tosylate (three dishes for each treatment group) and incubated at 20° C. Their survival was monitored until the 7th day of adulthood. The number of dead animals, not responding to any stimulation, and having intestinal and/or gonad extrusion was counted. The few animals that died of dehydration at the edge of the petri dishes were excluded from the analysis.
# [2] = system: mutated mip1 yeast strains; assay: Production of small colonies in mutated mip1 yeast strains; type: cell-based, Saccharomyces cerevisiae
# Description: The rate of small cells in a population represents the cells not breathing due to rearrangements of the mtDNA and/or having lost their mtDNA.
# From a pre-culture in selective medium (SC-TRP, 2% ethanol (v/v)) of the mutated mip1 strain, 2.10^5 cells/mL were seeded in 2 mL of rich YPD medium (1% Yeast Extract, 0.5% Bacto Peptone, 2% Glucose) in the presence of 32 μM clofilium tosylate or DMSO. The cells were then incubated at 28° C. for two cycles of 24 hours. The cells were then diluted to have about 200 to 250 cells per dish and spread on differential synthetic medium (SC-TRP, 0.3% glucose, 2% ethanol). The number of small colonies was calculated after 6 days of incubation at 28° C. (Baruffini, E., Lodi, T., Dallabona, C., Puglisi, A., Zeviani, M. and Ferrero, I. (2006) Genetic and Chemical rescue of the Saccharomyces cerevisiae phenotype induced by mitochondrial DNA polymerase mutations associated with progressive external ophthalmoplegia in humans. Hum. Mol. Genet., 15, 2846-2855).
# The effect of the clofilium tosylate on the production of small colonies was measured in 8 recessive mip1 mutants:
# an in 3 dominant mip1 mutants: • Y757C (mutated domain: polymerase) • K749R (mutated domain: polymerase) • E698G (mutated domain: polymerase)
# [3] = system: haploinsufficient TB2143 nematodes (polg-1(ok1458Δ/+)); assay: Test for resistance to ethidium bromide of haploinsufficient polg-1 nematodes; type: in vivo, Caenorhabditis elegans; conditions: 50 μM, 30 μg/mL ethidium bromide, 4 days
# Text: Ethidium bromide is an intercalating agent of DNA, especially of mtDNA, rich in adenine and thymidine. At high concentrations it halts the development of the worms at stage L3 (Addo, M. G., Cossard, R., Pichard, D., Obiri-Danso, K., Rötig, A. and Delahodde, A. (2010) Caenorhabditis elegans, a pluricellular model organism to screen new genes involved in mitochondrial genome maintenance. BBA-Mol. Basis Dis., 1802, 765-773. The haploinsufficient TB2143 nematodes (polg-1(ok1458Δ/+)) are highly sensitive to low doses of ethidium bromide (30 μg/mL) with 90% of the larvae halted at stage L3.
# Around thirty wild-type larvae or larvae mutated in polg-1 (TB2143 line (polg-1(ok1458Δ/+))) synchronised at stage L1 were deposited on NGM dishes containing 30 μg mL ethidium bromide and either DMSO or 50 μM clofilium tosylate (experiment performed in triplicate). Larval development was examined after 4 days of treatment.
# [4] = system: homozygous TB2143 nematodes (polg-1(Δ/Δ)); assay: Number of laid and hatched eggs of homozygous nematodes; type: in vivo, Caenorhabditis elegans; conditions: 50 μM vs DMSO
# Description: Four homozygous TB2143 larvae (polg-1(ok1548Δ/Δ)) at stage L4 were deposited on each NGM dish containing either DMSO or 50 μM clofilium tosylate (three dishes for each treatment group). They were incubated at 20° C. to adulthood stage. The adults were moved every 9 to 12 hours, over 6 to 7 days, to new dishes containing DMSO or 50 μM clofilium tosylate until there were no eggs in the uterus, and the number of laid eggs was counted. Each laying process was monitored until the following day in order to count the hatching.
# [5] = system: control fibroblasts and fibroblasts from a patient with a mutation on each allele of the POLG gene; assay: Maximum non-toxic concentration on fibroblast cultures (xCELLigence cell index); type: cell-based, human; conditions: 140 h, 2.5-10 μM tested
# Description: Skin fibroblasts from the control and from the patient were cultured in DMEM Galactose (DMEM free of glucose (Life Technologies) supplemented with 10 mM galactose, 10% foetal bovine serum, 200 U/mL penicillin, 200 U/mL streptomycin). Uridine (50 μg/mL) and sodium pyruvate (2.5 mM) were added to the culture medium to maintain the cells expressing a deficiency of the respiratory chain. The cells were incubated in a controlled atmosphere at 37° C. and 5% CO2.
# Cell growth of patient and control fibroblasts was measured continuously for 140 h by use of an xCELLigence apparatus (ACEA Biosciences) in 96-well plates. The background noise of the signal was measured with 50 μL of culture medium per well. 50 μL of medium containing 1350 fibroblasts were then added to each well. The impedance measurement was taken every minute for 9 h and then every 15 minutes until the end of analysis.
# Clofilium tosylate was diluted in 0.1% DMSO and used at different concentrations (2.5 μM, 5 μM, 10 μM) in a total volume of 50 μL. Toxic concentrations of clofilium tosylate were determined by adding the drug from the point of cell seeding. For each drug concentration and each control, the analysis was carried out in triplicate on 96-well plates. A mathematical algorithm was used to convert the impedance signal into cell index (CI). […]
# [6] = Maximum solubility in yeast culture; type: physicochemical; conditions: 28 °C; in YPD yeast culture; read-out: maximum concentration (maximum solubility)
# Description: From o/n pre-culture in selective medium (SC-URA, 2% ethanol (v/v)), 50 mL of rich YPD medium (1% Yeast Extract, 0.5% Bacto Peptone, 2% Glucose) were seeded at a DO600 of 0.05/mL. The 50 mL of culture were distributed in a series of ten tubes on the basis of 2 mL of culture/tube, with 4 mL of culture being placed in the last tube. […] From this tube (tube 1), 2 mL of culture were placed into tube 2. Tube 2 contained 4 ml of culture and clofilium tosylate at a concentration of 256 μM. 2 mL of tube 2 were added to tube 3, and so on. Each tube contained the drug at a concentration equal to half that of the previous tube. Two controls were provided—without clofilium tosylate and with DMSO (the volume being the same as that used to dilute the clofilium tosylate). The cultures were incubated at 28° C. with stirring for 24 hours, and the optical density (DO600) was measured.
smiles,measurement,setting,value
CCCCCCC[N+](CC)(CC)CCCCc1ccc(Cl)cc1.Cc1ccc(S(=O)(=O)[O-])cc1 [clofilium tosylate],premature death by gonad and/or intestinal extrusion,[1],reduced
same,production of small colonies of the mutant mip1^G651S yeast strain,[2]; 32 μM vs DMSO,reduced the production of small colonies
same,production of cells not breathing (small colonies) in recessive and dominant mip1 mutants,"[2]; 32 μM, irrespective of mutated MIP1 domain, except mutations producing more than 90% of small colonies",reduced the production of cells not breathing
same,resistance to ethidium bromide,[3],increased resistance
same,hatching of embryos,[4],increased
same,number of laid eggs,[4],increased
same,maximum approved (non-toxic) concentration,[5],2.5 µM
same,solubility,[6],512 µM
